# Experimental data from patent publication US20240189318A1, “THERAPEUTIC REGIMENS OF AN INHIBITOR OF THE ENZYMATIC ACTIVITY OF BRG1 AND BRM” (FOGHORN THERAPEUTICS INC., priority 2021, published 2024).
# What was measured:
# [1] = system: Uveal melanoma cell lines, 92-1 or MP41; assay: 3-day growth inhibition, Compound A compared with clinical PKC and MEK inhibitors; type: cell-based
# [2] = system: Uveal melanoma cell lines, 92-1 or MP41; assay: 3-day growth inhibition, Compound B compared with clinical PKC and MEK inhibitors; type: cell-based
# [3] = system: Uveal melanoma cell lines (92-1, MP41, MP38, MP46) and non-small cell lung cancer cells (NCIH1299); assay: 3-day growth inhibition, Compound B; type: cell-based; conditions: 92-1, MP41, MP38, MP46, NCIH1299; 3 days, 0 to 10 μM
# CYP2C19 = CYP2C19 (Homo sapiens, UniProt P33261); assay: Selective chemical inhibition of compound of formula (I) depletion in human liver microsomes, CYP2C19; type: in vitro ADME; design: from tissue; host or cells: human liver microsomes; conditions: human, human liver microsomes, probe compound of formula (I) (depletion); Time-dependent inhibitor; targeted CYP 2C19; inhibitor 10 μM
# Chain of CYP2C19 (P33261 whole entry): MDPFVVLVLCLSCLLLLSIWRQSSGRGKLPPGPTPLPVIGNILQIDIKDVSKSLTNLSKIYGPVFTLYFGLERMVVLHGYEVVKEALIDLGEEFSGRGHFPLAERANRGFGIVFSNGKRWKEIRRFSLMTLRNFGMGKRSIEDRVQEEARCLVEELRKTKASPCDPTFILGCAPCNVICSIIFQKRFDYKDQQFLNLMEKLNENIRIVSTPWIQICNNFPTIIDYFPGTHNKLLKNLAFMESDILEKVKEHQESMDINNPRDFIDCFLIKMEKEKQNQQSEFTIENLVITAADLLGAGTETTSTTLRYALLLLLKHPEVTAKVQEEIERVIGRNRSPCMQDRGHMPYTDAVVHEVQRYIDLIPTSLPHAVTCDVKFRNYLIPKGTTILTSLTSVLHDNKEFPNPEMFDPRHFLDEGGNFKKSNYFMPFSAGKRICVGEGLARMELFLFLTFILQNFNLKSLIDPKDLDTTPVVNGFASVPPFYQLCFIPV
# CYP1A2 = target: T1, CYP1A2 (Homo sapiens, UniProt P05177); assay: in vitro
# T1 sequence (P05177 1-516): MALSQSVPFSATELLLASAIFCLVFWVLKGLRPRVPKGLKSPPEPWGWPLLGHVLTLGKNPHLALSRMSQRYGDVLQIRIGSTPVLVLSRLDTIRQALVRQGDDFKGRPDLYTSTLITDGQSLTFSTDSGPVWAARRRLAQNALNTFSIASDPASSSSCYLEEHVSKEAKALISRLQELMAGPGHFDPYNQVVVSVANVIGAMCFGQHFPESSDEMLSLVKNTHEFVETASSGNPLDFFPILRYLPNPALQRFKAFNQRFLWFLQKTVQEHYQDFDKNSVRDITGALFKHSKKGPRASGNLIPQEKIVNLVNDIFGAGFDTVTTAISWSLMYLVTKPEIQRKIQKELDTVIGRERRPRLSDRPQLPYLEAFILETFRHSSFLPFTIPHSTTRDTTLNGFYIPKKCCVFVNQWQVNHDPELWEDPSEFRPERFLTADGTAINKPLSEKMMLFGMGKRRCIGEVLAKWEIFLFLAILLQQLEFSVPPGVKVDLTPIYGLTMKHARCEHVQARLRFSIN
# 2C8 = target: T2, 2C8 (Homo sapiens, UniProt P10632); assay: Selective chemical inhibition of compound of formula (I) depletion in human liver microsomes, CYP2C8; type: in vitro ADME; conditions: Time-dependent inhibitor; targeted CYP 2C8; inhibitor 100 μM
# T2 construct: from tissue; host or cells: human liver microsomes
# T2 sequence (P10632 whole entry): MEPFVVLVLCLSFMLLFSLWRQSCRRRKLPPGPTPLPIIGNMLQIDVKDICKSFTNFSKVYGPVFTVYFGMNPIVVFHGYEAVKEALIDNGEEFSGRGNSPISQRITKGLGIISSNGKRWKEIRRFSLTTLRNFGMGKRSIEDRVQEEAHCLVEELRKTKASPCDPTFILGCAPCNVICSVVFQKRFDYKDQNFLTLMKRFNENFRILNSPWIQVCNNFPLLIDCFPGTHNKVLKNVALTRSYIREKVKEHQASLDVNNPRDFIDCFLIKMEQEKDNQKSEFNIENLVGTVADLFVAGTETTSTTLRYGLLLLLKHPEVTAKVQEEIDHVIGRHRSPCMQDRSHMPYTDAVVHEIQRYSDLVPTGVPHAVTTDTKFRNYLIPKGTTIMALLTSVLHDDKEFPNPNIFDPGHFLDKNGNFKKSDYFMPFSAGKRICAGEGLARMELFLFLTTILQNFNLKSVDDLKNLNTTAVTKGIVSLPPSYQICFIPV
# CYP3A4/5 = assay: Selective chemical inhibition of compound of formula (I) depletion in human liver microsomes, CYP3A4/5; conditions: human
# [4] = system: parental MP41 cells and PKC inhibitor (PKCl)-resistant cells; assay: 7-day growth inhibition assay, parental and PKC inhibitor-resistant cells; type: cell-based; conditions: 7-day assay
# CYP2A6 = target: T3, CYP2A6 (Homo sapiens, UniProt P11509); assay: Selective chemical inhibition of compound of formula (I) depletion in human liver microsomes, CYP2A6; type: in vitro ADME; conditions: probe compound of formula (I) (depletion), Direct inhibitor, targeted CYP 2A6, inhibitor 10 μM
# T3 construct: from tissue; host or cells: human liver microsomes
# T3 sequence (P11509 whole entry): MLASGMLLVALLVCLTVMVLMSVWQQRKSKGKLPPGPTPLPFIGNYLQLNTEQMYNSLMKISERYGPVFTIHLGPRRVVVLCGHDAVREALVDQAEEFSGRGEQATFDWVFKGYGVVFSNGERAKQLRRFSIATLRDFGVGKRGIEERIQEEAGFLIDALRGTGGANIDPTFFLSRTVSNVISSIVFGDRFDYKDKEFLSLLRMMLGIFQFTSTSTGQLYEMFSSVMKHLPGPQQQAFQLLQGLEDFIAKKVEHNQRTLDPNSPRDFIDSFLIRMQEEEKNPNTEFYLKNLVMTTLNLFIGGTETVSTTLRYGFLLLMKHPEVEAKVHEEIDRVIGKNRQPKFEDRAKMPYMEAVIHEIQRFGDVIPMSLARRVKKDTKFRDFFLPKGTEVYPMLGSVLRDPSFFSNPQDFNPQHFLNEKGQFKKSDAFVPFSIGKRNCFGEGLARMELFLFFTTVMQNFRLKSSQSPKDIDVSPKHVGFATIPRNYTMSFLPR
# CYP1A2 mRNA = assay: CYP mRNA level (qRT-PCR) in cultured human hepatocytes, CYP1A2; conditions: 50 μM, range of fold change observed from three donors
# CYP1A2 enzyme activity = assay: CYP enzyme activity in cultured human hepatocytes, CYP1A2; type: in vitro ADME; conditions: 50 μM, range from three donors
# CYP2B6 = target: T4, CYP2B6 (Homo sapiens, UniProt P20813); assay: Selective chemical inhibition of compound of formula (I) depletion in human liver microsomes, CYP2B6; type: in vitro ADME; design: from tissue; host or cells: human liver microsomes; conditions: probe compound of formula (I) (depletion), Time-dependent inhibitor, targeted CYP 2B6, inhibitor 30 μM
# T4 sequence (P20813 1-491): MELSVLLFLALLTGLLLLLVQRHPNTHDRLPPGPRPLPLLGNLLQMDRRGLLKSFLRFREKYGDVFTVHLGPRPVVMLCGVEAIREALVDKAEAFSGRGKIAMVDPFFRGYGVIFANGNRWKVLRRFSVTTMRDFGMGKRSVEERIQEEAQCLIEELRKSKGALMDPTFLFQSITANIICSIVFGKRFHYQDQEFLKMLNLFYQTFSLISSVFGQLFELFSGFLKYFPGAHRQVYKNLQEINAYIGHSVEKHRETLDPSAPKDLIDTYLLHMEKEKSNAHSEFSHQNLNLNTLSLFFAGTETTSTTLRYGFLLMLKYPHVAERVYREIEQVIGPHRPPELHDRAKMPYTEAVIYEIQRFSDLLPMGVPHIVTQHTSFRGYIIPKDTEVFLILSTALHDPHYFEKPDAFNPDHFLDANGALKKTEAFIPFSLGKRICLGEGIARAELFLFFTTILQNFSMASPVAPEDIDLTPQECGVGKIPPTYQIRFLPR
# CYP2B6 activity = assay: CYP enzyme activity in cultured human hepatocytes, CYP2B6; type: in vitro ADME; conditions: 1000 μM, range from three donors
# CYP2B6 mRNA = assay: CYP mRNA level (qRT-PCR) in cultured human hepatocytes, CYP2B6; conditions: CYP2B6; 1000 μM; range from three donors
# 2D6 = 2D6 (Homo sapiens, UniProt P10635); assay: Selective chemical inhibition of compound of formula (I) depletion in human liver microsomes, CYP2D6; conditions: Direct inhibitor; targeted CYP 2D6; inhibitor 5 μM
# Chain of 2D6 (P10635 whole entry): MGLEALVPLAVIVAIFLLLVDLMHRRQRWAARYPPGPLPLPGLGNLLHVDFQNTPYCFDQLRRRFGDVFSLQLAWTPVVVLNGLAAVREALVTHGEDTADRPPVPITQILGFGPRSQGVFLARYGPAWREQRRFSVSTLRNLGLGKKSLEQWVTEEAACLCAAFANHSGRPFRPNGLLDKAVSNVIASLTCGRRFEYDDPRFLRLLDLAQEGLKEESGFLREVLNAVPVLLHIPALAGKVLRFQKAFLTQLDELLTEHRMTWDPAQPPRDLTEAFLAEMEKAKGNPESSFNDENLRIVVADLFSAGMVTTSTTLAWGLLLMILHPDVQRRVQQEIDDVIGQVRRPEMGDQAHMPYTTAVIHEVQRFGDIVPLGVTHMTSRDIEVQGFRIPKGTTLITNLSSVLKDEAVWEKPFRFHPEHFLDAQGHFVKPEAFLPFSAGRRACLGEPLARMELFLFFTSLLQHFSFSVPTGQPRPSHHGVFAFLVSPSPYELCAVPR
# CYP2C19 mRNA = assay: CYP mRNA level in cultured human hepatocytes, CYP2C19; type: in vitro ADME; conditions: CYP2C19; 20 μM; range from three donors
# CYP2C9 = CYP2C9 (Homo sapiens, UniProt P11712); assay: in vitro
# Chain of CYP2C9 (P11712 whole entry): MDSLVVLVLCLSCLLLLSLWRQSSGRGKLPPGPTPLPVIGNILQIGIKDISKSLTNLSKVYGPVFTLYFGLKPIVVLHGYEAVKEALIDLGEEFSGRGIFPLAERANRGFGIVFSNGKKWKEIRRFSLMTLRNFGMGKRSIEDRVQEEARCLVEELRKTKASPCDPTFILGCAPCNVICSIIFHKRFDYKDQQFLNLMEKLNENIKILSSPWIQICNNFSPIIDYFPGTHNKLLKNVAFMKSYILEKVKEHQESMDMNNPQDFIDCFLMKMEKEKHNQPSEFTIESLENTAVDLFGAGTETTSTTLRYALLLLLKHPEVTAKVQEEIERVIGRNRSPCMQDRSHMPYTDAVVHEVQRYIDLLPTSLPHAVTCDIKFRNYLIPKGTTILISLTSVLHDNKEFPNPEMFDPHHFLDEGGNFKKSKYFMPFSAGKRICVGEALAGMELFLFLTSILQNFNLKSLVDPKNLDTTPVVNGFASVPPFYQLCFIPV
compound,measurement,setting,value
CSCC[C@H](NC(=O)c1ccc(N)cc1)C(=O)Nc1nc(-c2cccc(-c3ccncc3)c2)cs1 [Compound A],onset of inhibition versus clinical PKC and MEK inhibitors,[1]; 92-1 or MP41,faster onset of inhibition
same,growth inhibition of uveal melanoma cells versus clinical PKC and MEK inhibitors,"[1]; 92-1 or MP41, 3 days, 0 to 10 μM, vs LXS196 and selumetinib",comparable growth inhibition
CSCC[C@H](NC(=O)c1ccn(S(C)(=O)=O)c1)C(=O)Nc1nc(-c2cccc(-c3ccncc3)c2)cs1 [Compound B],onset of growth inhibition versus clinical PKC and MEK inhibitors,[2]; 92-1 or MP41,faster onset of growth inhibition
same,growth inhibition of uveal melanoma cells versus clinical PKC and MEK inhibitors,"[2]; 92-1 or MP41, 3 days, vs LXS196 and selumetinib",more potent effects on growth inhibition
same,growth inhibition in the cell lines,[3],potent growth inhibition
"COc1ccc2nc([S@@+]([O-])Cc3ncc(C)c(OC)c3C)[nH]c2c1 [Esomeprazole, reference compound]",inhibition at 10 µM,CYP2C19,27.1%
Cc1nc2c([nH]1)c(=O)n(C)c(=O)n2Cc1ccco1 [Furafylline],inhibition at 10 µM,CYP1A2,1.9%
Cc1ccc(C)c(OCCCC(C)(C)C(=O)O[C@@H]2O[C@H](C(=O)O)[C@@H](O)[C@H](O)[C@H]2O)c1 [Gemfibrozil glucuronide],% Inhibition of compound of formula (I) depletion in human liver microsomes,2C8,No
"CC(=O)N1CCN(c2ccc(OCC3COC(Cn4ccnc4)(c4ccc(Cl)cc4Cl)O3)cc2)CC1 (stereo not shown) [Ketoconazole, reference compound]",inhibition at 1 µM,CYP3A4/5,83.3%
CC1(N)CCN(c2cccnc2NC(=O)c2nc(-c3ncccc3C(F)(F)F)cnc2N)CC1 [LXS196],sensitivity of PKCl-resistant cells relative to parental MP41 cells,[4],could tolerate growth at higher concentrations
N#Cc1ccc(C(c2ccc(C#N)cc2)n2cncn2)cc1 [Letrozole],inhibition at 10 µM,CYP2A6,9.1%
"COc1ccc2[nH]c([S+]([O-])Cc3ncc(C)c(OC)c3C)nc2c1 (stereo not shown) [Omeprazole, reference compound]",Positive Control mRNA Fold Change,CYP1A2 mRNA,50.2-118
same,Positive Control Enzyme Activity Fold Change,CYP1A2 enzyme activity,20.0-93.9
c1ccc(C2(N3CCCCC3)CCCCC2)cc1 [Phencyclidine],inhibition at 30 µM,CYP2B6,5.7%
"CCC1(c2ccccc2)C(=O)NC(=O)NC1=O [Phenobarbital, reference compound]",Positive Control Enzyme Activity Fold Change,CYP2B6 activity,11.9-16.7
same,Positive Control mRNA Fold Change,CYP2B6 mRNA,15.3-39.6
C=C[C@H]1C[N@@]2CC[C@H]1C[C@@H]2[C@@H](O)c1ccnc2ccc(OC)cc12 [Quinidine],% Inhibition of compound of formula (I) depletion in human liver microsomes,2D6,No
"CO[C@H]1/C=C/O[C@@]2(C)Oc3c(C)c(O)c4c(O)c(c(/C=N/N5CCN(C)CC5)c(O)c4c3C2=O)NC(=O)/C(C)=C\C=C\[C@H](C)[C@H](O)[C@@H](C)[C@@H](O)[C@@H](C)[C@H](OC(C)=O)[C@@H]1C [Rifampin, reference compound]",Positive Control mRNA Fold Change,CYP2C19 mRNA,0.61-1.01
O=C(O)COc1ccc(C(=O)c2cccs2)c(Cl)c1Cl [Tienilic acid],inhibition at 20 µM,CYP2C9,2.4%
